Results taken from ChEMBL document CHEMBL1201862, “PubChem BioAssay data set” (2004).
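Briefly, cells in 96-well plates were exposed to five compound concentrations for 48 h, and endpoints were estimated by linear interpolation. GI50 = concentration required for 50% inhibition of growth.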 Calls of active or inactive are those of the source. No stated cut-off is given here; in the data, active = GI50 up to about 1.1 µM and inactive = higher.

Columns and labels:
Experiment in all cases: growth of human tumour cells (NCI), 48 h
CAKI-1 = test system: CAKI-1
HCT-116 = test system: HCT-116
HL-60 = test system: HL-60
HOP-62 = test system: HOP-62
KM12 = test system: KM12
M14 = test system: M14
MDA-MB-435 = test system: MDA-MB-435
NCI-H23 = test system: NCI-H23
NCI-H460 = test system: NCI-H460
NCI-H522 = test system: NCI-H522
NCI/ADR-RES = test system: NCI/ADR-RES
OVCAR-4 = test system: OVCAR-4
SK-MEL-5 = test system: SK-MEL-5
SNB-19 = test system: SNB-19
SW-620 = test system: SW-620
TK-10 = test system: TK-10
UACC-62 = test system: UACC-62
UO-31 = test system: UO-31
HCC 2998 = test system: HCC 2998

Measured: GI50

O=C1NC(Cc2ccc(O)cc2)C(=O)NC1Cc1ccc(O)cc1 (stereo unspecified)
inactive: CAKI-1 > 100 µM | HCT-116 > 100 µM | HL-60 > 100 µM | HOP-62 > 100 µM | KM12 > 100 µM | M14 > 100 µM | MDA-MB-435 > 100 µM | NCI-H23 > 100 µM | NCI-H460 > 100 µM | NCI-H522 > 100 µM | NCI/ADR-RES > 100 µM | OVCAR-4 > 100 µM | SK-MEL-5 > 100 µM | SNB-19 > 100 µM | SW-620 > 100 µM | TK-10 > 100 µM | UACC-62 > 100 µM | UO-31 > 100 µM

c1ccc([P+](CCC[P+](c2ccccc2)(c2ccccc2)c2ccccc2)(c2ccccc2)c2ccccc2)cc1
inactive: CAKI-1 > 100 µM | HCC 2998 32.2 µM | HCT-116 20.1 µM | HL-60 10.7 µM | HOP-62 49.3 µM | KM12 24.4 µM | M14 71.9 µM | NCI-H23 25.2 µM | NCI-H460 20 µM | NCI-H522 19.5 µM | OVCAR-4 57 µM | SK-MEL-5 20.2 µM | SNB-19 16.3 µM | SW-620 36.7 µM | TK-10 86.7 µM | UACC-62 26.1 µM | UO-31 > 99.5 µM

CC(C)(c1ccccc1)c1ccc(Oc2ccc(C#N)c(C#N)c2)cc1
inactive: CAKI-1 > 10 µM | HCC 2998 > 10 µM | HCT-116 36.6 µM | HL-60 20.5 µM | HOP-62 > 10 µM | KM12 > 10 µM | M14 71.8 µM | NCI-H23 25 µM | NCI-H460 > 10 µM | NCI-H522 9.06 µM | OVCAR-4 7.82 µM | SK-MEL-5 20.7 µM | SNB-19 34.6 µM | SW-620 > 100 µM | TK-10 > 10 µM | UACC-62 > 10 µM | UO-31 4.48 µM

CC1CCC2C(C)C(=O)OC2C2(C)C(=O)C=CC12 (stereo unspecified)
inactive: CAKI-1 > 10 µM | HCC 2998 > 10 µM | HCT-116 7.76 µM | HL-60 6.82 µM | HOP-62 > 10 µM | KM12 > 10 µM | M14 > 10 µM | MDA-MB-435 > 10 µM | NCI-H23 > 10 µM | NCI-H460 > 10 µM | NCI-H522 2.83 µM | NCI/ADR-RES > 10 µM | OVCAR-4 > 10 µM | SK-MEL-5 > 10 µM | SNB-19 > 10 µM | SW-620 > 10 µM | TK-10 > 10 µM | UACC-62 > 10 µM | UO-31 > 10 µM

CCOC(=O)/C(=C\c1ccc[nH]1)C(=O)c1ccccc1
inactive: CAKI-1 > 100 µM | HCC 2998 > 100 µM | HCT-116 > 100 µM | HL-60 23.3 µM | HOP-62 > 100 µM | KM12 65.9 µM | M14 > 100 µM | NCI-H23 > 100 µM | NCI-H460 > 100 µM | NCI-H522 > 100 µM | OVCAR-4 > 100 µM | SK-MEL-5 > 100 µM | SNB-19 > 100 µM | SW-620 52.7 µM | TK-10 > 100 µM | UACC-62 67.6 µM | UO-31 > 100 µM

CC(C)(C)COC1C2(OCCO2)C2CCC1(C)C2(C)C (stereo unspecified)
inactive: CAKI-1 40.1 µM | HCC 2998 37.5 µM | HL-60 24.8 µM | HOP-62 22.1 µM | KM12 20 µM | M14 44 µM | MDA-MB-435 36 µM | NCI-H23 52.5 µM | NCI-H460 33.7 µM | NCI/ADR-RES 42 µM | OVCAR-4 45 µM | SK-MEL-5 30.3 µM | SNB-19 20.6 µM | SW-620 19.7 µM | TK-10 > 100 µM | UACC-62 54.7 µM | UO-31 26.2 µM

c1ccc(CNc2ccc3[nH]c4cnccc4c3c2)cc1
inactive: CAKI-1 16.2 µM | HCC 2998 18.1 µM | HCT-116 17.5 µM | HL-60 11 µM | HOP-62 17.2 µM | KM12 17.3 µM | M14 18 µM | NCI-H23 15.1 µM | NCI-H460 17.9 µM | NCI-H522 14 µM | OVCAR-4 14.4 µM | SK-MEL-5 15.2 µM | SNB-19 16 µM | SW-620 19.9 µM | TK-10 20 µM | UACC-62 17.6 µM | UO-31 15.5 µM

CCOP(=O)(OCC)C(C)(CC)N/C(=N\C1=NC(C(F)(F)F)(C(F)(F)F)N=C(C(F)(F)F)O1)NC(NC(C)=O)(C(F)(F)F)C(F)(F)F (stereo unspecified)
inactive: CAKI-1 42 µM | HCC 2998 34 µM | HCT-116 33.3 µM | HL-60 17.8 µM | HOP-62 36.1 µM | KM12 35 µM | M14 22.9 µM | MDA-MB-435 32.7 µM | NCI-H23 18.2 µM | NCI-H460 35.3 µM | NCI-H522 27 µM | NCI/ADR-RES 17.9 µM | OVCAR-4 16.5 µM | SK-MEL-5 14.1 µM | SNB-19 60.4 µM | SW-620 56.8 µM | TK-10 46.9 µM | UACC-62 35.3 µM

Cn1c(=O)oc2cc(C3CCC(=O)N3Cc3ccc(Cl)cc3)ccc21 (stereo unspecified)
inactive: CAKI-1 > 100 µM | HCC 2998 > 100 µM | HCT-116 > 100 µM | HL-60 > 100 µM | HOP-62 > 100 µM | KM12 > 100 µM | M14 > 100 µM | NCI-H23 > 100 µM | NCI-H460 > 100 µM | NCI-H522 > 100 µM | OVCAR-4 > 100 µM | SK-MEL-5 > 100 µM | SNB-19 > 100 µM | SW-620 > 100 µM | TK-10 > 100 µM | UACC-62 > 100 µM | UO-31 > 100 µM

COC1=C2CC(C)CC(OC)C(O)C(C)/C=C(\C)C(OC(N)=O)C(OC)/C=C\C=C(/C)C(=O)NC(=C(/C=N/N3CCCCC3)C1=O)C2=O (stereo unspecified)
inactive: CAKI-1 15.7 µM | HCC 2998 6.7 µM | HCT-116 3.25 µM | HL-60 1.95 µM | HOP-62 18.3 µM | KM12 11.6 µM | M14 18.7 µM | NCI-H23 15.8 µM | NCI-H460 19.5 µM | NCI-H522 2.55 µM | OVCAR-4 5.26 µM | SK-MEL-5 15.8 µM | SNB-19 16.1 µM | SW-620 2.82 µM | TK-10 27.9 µM | UACC-62 18.6 µM | UO-31 10.8 µM

O=C(Cc1nc2ccccc2c(=O)n1-c1c(Cl)cccc1Cl)c1ccncc1
inactive: CAKI-1 23.6 µM | HCC 2998 22.5 µM | HCT-116 17.8 µM | HL-60 12 µM | HOP-62 21.3 µM | KM12 15.8 µM | M14 30.6 µM | NCI-H23 36.8 µM | NCI-H460 21.4 µM | NCI-H522 19.6 µM | OVCAR-4 27.5 µM | SK-MEL-5 15.9 µM | SNB-19 31.4 µM | SW-620 36.6 µM | TK-10 > 10 µM | UACC-62 22.7 µM | UO-31 13.3 µM
